Laboratory results: PubChem BioAssay (NCI)
Several values for one entry are separate records, joined by “and”; a condition that tells them apart may be missing. Identical values can stand only once.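 Grown in 96-well plates, cells were treated for 48 hours with each compound at five concentrations. Insufficient inhibition: endpoint recorded as highest concentration tested. Abbreviation: GI50, concentration required for 50% inhibition of growth. TGI denotes the concentration required for complete inhibition of growth.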

Assays:
Assay in all cases: inhibition of tumour cell growth, NCI panel, 48 h
HT29 colon = system: HT29 colon
KM20L2 colon = system: KM20L2 colon
M19-MEL melanoma = system: M19-MEL melanoma
DLD-1 colon = system: DLD-1 colon
DMS 273 small cell lung = system: DMS 273 small cell lung
T-47D breast = system: T-47D breast
DU-145 prostate = system: DU-145 prostate
HS 578T breast = system: HS 578T breast
MCF7 breast = system: MCF7 breast
BT-549 breast = system: BT-549 breast

SMILES | TGI (HT29 colon) | TGI (KM20L2 colon) | TGI (M19-MEL melanoma) | TGI (DLD-1 colon) | TGI (DMS 273 small cell lung) | further results
O=C1/C=C(/c2ccc(O)cc2)[C@H](O)Cc2ccc(OC3OC(CO)C(O)C(O)C3O)cc2O1 (stereo not given in full) (tested in a mixture with another compound) | > 100 µM | > 100 µM | > 100 µM | > 100 µM |  | 
Clc1cc(Cl)c2n[se]nc2c1 | > 100 µM | > 100 µM | > 100 µM |  | > 100 µM | 
N#CC1(Cc2ccccc2Cl)c2ccccc2C=CN1C(=O)c1ccccc1 (stereo not given) | > 100 µM | > 100 µM | > 100 µM |  | > 100 µM | 
COC1=C(NC(C)=O)C(=O)c2nc3n(c2C1=O)CCC3 | 66.2 µM | > 100 µM |  | 29.3 µM | 34.6 µM | TGI (T-47D breast): 72.7 µM; TGI (DU-145 prostate): 35.8 µM; TGI (HS 578T breast): 82.8 µM; TGI (MCF7 breast): 47.1 µM
COc1cc(OC)c(Oc2cccc(OC)c2OC)c(OC)c1 | > 100 µM | > 100 µM | > 100 µM | > 100 µM | > 100 µM | 
CC(=O)OCC1OC(n2c(-c3ccc(N)cc3)cc(-c3ccco3)c(C#N)c2=O)C(OC(C)=O)C(OC(C)=O)C1OC(C)=O (stereo not given) | > 50 µM | > 50 µM | > 50 µM | > 50 µM | > 50 µM | 
O=C(/C=C(\O)C(=O)O)/C=C(\O)c1ccc(Cl)cc1 | > 100 µM | > 100 µM | > 100 µM | > 100 µM | > 100 µM | 
O=C(Nc1ccc(Cl)cc1Cl)c1c/c(=N\O)c2ccc(O)cc2o1 | > 100 µM | > 100 µM | > 100 µM | > 100 µM |  | 
NNC(=S)N/N=C(\c1nc2ccc(Cl)cc2[nH]c1=O)C(O)c1ccc(Cl)cc1Cl (stereo not given) | > 100 µM | > 100 µM | > 100 µM | > 100 µM | > 100 µM | 
O=C(c1ccc(Cl)cc1)N(C(=S)N1CCN(c2ccccc2)CC1)C1CCCCC1 | > 100 µM | > 100 µM | > 100 µM | > 100 µM | > 100 µM | 
COC(=O)c1nc(N)[nH]c(=O)c1-c1ccc(Cl)cc1 | > 100 µM | > 100 µM | > 100 µM | > 100 µM | > 100 µM | 
O=C(CC1Sc2ccccc2NC1=O)Nc1ccc([N+](=O)[O-])cc1[N+](=O)[O-] (stereo not given) | 33.1 µM | 79.5 µM | 30.3 µM | 28.6 µM |  | 
COc1ccc(-c2cc(-c3ccco3)c(C#N)c(=O)n2C2OC(OC(=O)c3ccccc3)C(OC(=O)c3ccccc3)C2OC(=O)c2ccccc2)cc1 (stereo not given) | > 100 µM | > 100 µM | > 100 µM | > 100 µM | > 100 µM | 
COC1=C(C(=O)OC(C)(C)C)C23CCCCC2(C(C(=O)OC(C)(C)C)=C(OC)C3C(=O)OC(C)(C)C)C1C(=O)OC(C)(C)C (stereo not given) | > 100 µM | > 100 µM | > 100 µM | > 100 µM | > 100 µM | 
Cn1c(=O)c(C2c3ccccc3Oc3c2c(=O)n(C)c2ccccc32)c(O)c2ccccc21 (stereo not given) | > 100 µM | > 100 µM | > 100 µM | > 100 µM | > 100 µM | 
O=c1c2ccccc2oc2nccnc12 | > 100 µM | > 100 µM | > 100 µM | > 100 µM | > 100 µM | 
COc1ccc(NC(=O)CC(=O)n2nc(-c3ccccc3)c(N=Nc3ccc(C)cc3)c2-c2ccccc2)cc1 | > 100 µM | > 100 µM | > 100 µM | > 100 µM | > 100 µM | TGI (T-47D breast): > 75 µM; TGI (DU-145 prostate): > 100 µM; TGI (HS 578T breast): 60.7 µM; TGI (MCF7 breast): > 85.2 µM; TGI (BT-549 breast): > 58 µM
Cc1cc(C)cc(NC(=O)CCC(=O)C2CCC/C2=N\NC(=O)C(=O)NN)c1 (stereo not given) | > 100 µM | > 100 µM | > 100 µM | > 100 µM | > 100 µM | 
CC(C)CCC[C@@H](C)C1CCC2[C@@H]3CC=C4C[C@@H](OC(=O)CCC(=O)NCC[N+](C)(C)CCCS(=O)(=O)[O-])CC[C@]4(C)C3CC[C@@]21C (stereo not given in full) | 80.3 µM | > 100 µM | 33.4 µM | 44.9 µM | 28.5 µM | 

SMILES | TGI (HT29 colon) | TGI (KM20L2 colon) | TGI (M19-MEL melanoma) | TGI (DLD-1 colon) | TGI (DMS 273 small cell lung) | further results
O=C(N/C(=C\c1cc(Cl)ccc1Cl)c1nc2ccccc2[nH]1)c1ccccc1 | 29.8 µM | > 100 µM | > 100 µM | 37 µM |  | 
C[N+](C)(C)CC(=O)NC(=O)N/N=C\C(CC#N)CN(Cc1ccccc1)Cc1ccccc1 (stereo not given) | > 100 µM | > 100 µM | > 100 µM | > 100 µM | > 100 µM | 
COc1ccc(/C=N\N2C(=O)Cc3ccccc32)cc1 | > 100 µM | > 100 µM | > 100 µM | > 100 µM | > 100 µM | 
COC(=O)C1=C(SC)SC2(C(=O)OC)C3C=C(C)C4C(N13)C42C(=O)OC (stereo not given) | > 100 µM | > 100 µM | > 100 µM | > 100 µM | > 100 µM | 
CC1=NN(C(=O)CC(=O)Nc2ccccc2)C(=O)C1N=Nc1ccc(S(N)(=O)=O)cc1 (stereo not given) | > 100 µM | > 100 µM |  | > 100 µM | > 100 µM | 
COc1cc2c3c(c1OC)C1(C=CC(=O)C=C1)CC3N(C(=O)OC(C)(C)C(Cl)(Cl)Cl)CC2 (stereo not given) | 24.4 µM | 25.2 µM | 24.3 µM | 23.5 µM | 24.5 µM | 
Cc1cc(C)c(-c2noc(-c3ccc(Cl)cc3)c2C2=NCCN2)c(C)c1 | 34.2 µM | 54 µM | > 100 µM | 75.9 µM |  | 
CC(C)(C)NC(=O)C12C3C4C1C1C2C3C41I (stereo not given) | > 100 µM | > 100 µM | > 100 µM |  | > 100 µM | 
CCOc1cccc2cccnc12 | > 100 µM | > 100 µM |  | > 100 µM |  | 
COc1ccc2c(c1)C(CCN)C(=O)N2 (stereo not given) | > 100 µM | > 100 µM | > 100 µM | > 100 µM | > 100 µM | 
COc1ncn(C2C=C(CO)C(O)C2O)c(=O)n1 (stereo not given) |  | > 100 µM |  | > 100 µM | > 100 µM | 
O=C(CCCCCCCCC(=O)OCCCn1cc(C(=O)NC(=O)OCc2ccccc2)c(=O)[nH]c1=O)OCCCn1cc(C(=O)NC(=O)OCc2ccccc2)c(=O)[nH]c1=O | > 100 µM | > 100 µM | > 100 µM | > 100 µM | > 100 µM | 
Nc1ncnc2c1ncn2C1OC(CO)C(O)C1O (stereo not given) | > 450 µM | > 450 µM | > 450 µM | > 450 µM | > 450 µM | GI50 (T-47D breast): 0.738 µM; TGI (T-47D breast): > 100 µM and 13.5 µM; GI50 (DU-145 prostate): 3.8 µM; TGI (DU-145 prostate): 82.4 µM and 31.4 µM; GI50 (HS 578T breast): 16.2 µM; TGI (HS 578T breast): 54.4 µM; GI50 (BT-549 breast): 7.69 µM; TGI (BT-549 breast): 59 µM
Nc1ccc(Cl)cc1.Nc1ccc(Cl)cc1.Nc1ccc(Cl)cc1.O=C([O-])C(=O)[O-].O=C([O-])C(=O)[O-].[H+].[Ru+5] | > 100 µM | > 100 µM | 2.15 µM | > 100 µM | > 100 µM | GI50 (DMS 273 small cell lung): 0.087 µM; GI50 (KM20L2 colon): > 100 µM; GI50 (M19-MEL melanoma): 0.0537 µM; GI50 (DLD-1 colon): > 43.5 µM
O=C(O)C(=O)/C=C\c1ccc(Cl)cc1 | > 100 µM | > 100 µM | > 100 µM | > 100 µM | > 100 µM | 
COc1ccccc1NC(=O)CC(=O)NNCC(=O)Nc1nc(-c2ccccc2)cs1 | > 100 µM | > 100 µM | > 100 µM | > 100 µM | > 100 µM | 
CCCCCCCC(=O)SCC/C=C/[C@@H]1CC(=O)NCc2cccc(n2)CN(Cc2ccc(Cl)cc2)CC(=O)N[C@@H](C(C)C)C(=O)O1 | > 100 µM |  |  |  |  | GI50 (T-47D breast): 29.3 µM; TGI (T-47D breast): 98.7 µM; GI50 (HT29 colon): 4.3 µM; GI50 (DU-145 prostate): 10.9 µM; TGI (DU-145 prostate): > 100 µM; GI50 (HS 578T breast): 6.05 µM; TGI (HS 578T breast): 56.1 µM; GI50 (MCF7 breast): 12.1 µM; TGI (MCF7 breast): > 100 µM; GI50 (BT-549 breast): 37.1 µM; TGI (BT-549 breast): > 100 µM
O=C1CCc2cc([N+](=O)[O-])ccc2O1 | > 100 µM |  |  |  |  | TGI (T-47D breast): > 100 µM; TGI (DU-145 prostate): > 100 µM; TGI (HS 578T breast): > 100 µM; TGI (MCF7 breast): > 100 µM; TGI (BT-549 breast): > 100 µM
COC(=O)c1ccc2n[se]nc2c1 | > 100 µM | > 100 µM | > 100 µM | > 100 µM | > 100 µM | 
